{
  "source": "patent US20150139949A1",
  "about": "“ANTI-VIRAL COMBINATION THERAPY” (priority 2011, published 2015)",
  "key": {"hELOVL6": {"molecular_target": "T1, hELOVL6 (Homo sapiens, UniProt Q9H5J4)", "T1 sequence (Q9H5J4 1-265)": "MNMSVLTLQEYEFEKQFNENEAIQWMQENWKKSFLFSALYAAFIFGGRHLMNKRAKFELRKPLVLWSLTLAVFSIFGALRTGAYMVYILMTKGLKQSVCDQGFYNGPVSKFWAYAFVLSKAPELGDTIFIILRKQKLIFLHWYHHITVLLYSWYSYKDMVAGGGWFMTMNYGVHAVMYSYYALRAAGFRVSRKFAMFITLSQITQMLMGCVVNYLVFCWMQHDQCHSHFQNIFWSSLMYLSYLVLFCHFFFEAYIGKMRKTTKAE", "conditions": "read-out: hELOVL6 IC50; cited from earlier work"}, "hELOVL3": {"molecular_target": "T2, hELOVL3 (Homo sapiens, UniProt Q9HB03)", "T2 sequence (Q9HB03 1-270)": "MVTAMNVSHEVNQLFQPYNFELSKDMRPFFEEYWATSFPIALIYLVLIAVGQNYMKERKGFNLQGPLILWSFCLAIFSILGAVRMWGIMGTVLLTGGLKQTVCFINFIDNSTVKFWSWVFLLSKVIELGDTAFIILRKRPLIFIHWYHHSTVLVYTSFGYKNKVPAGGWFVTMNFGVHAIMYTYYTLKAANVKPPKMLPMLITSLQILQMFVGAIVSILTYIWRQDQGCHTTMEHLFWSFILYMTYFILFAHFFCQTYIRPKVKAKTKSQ", "conditions": "cited from earlier work"}, "MDCK cells": {"test_system": "MDCK cells", "assay": "host cell toxicity in influenza A experiment", "format": "cell-based", "conditions": "0.5 mM and 1 mM, 24 hours"}, "HCMV": {"test_system": "HCMV", "assay": "HCMV replication / titer in infected fibroblasts", "format": "cell-based"}, "adenovirus": {"test_system": "adenovirus", "assay": "adenovirus replication / titer", "format": "cell-based", "conditions": "for decrease of adenovirus titer: MRC2 cells"}, "influenza A": {"test_system": "influenza A", "assay": "influenza A replication", "format": "cell-based"}, "[1]": {"test_system": "cholesterol ester (CE) synthesis", "conditions": "cited from earlier work"}, "[2]": {"test_system": "triacylglycerol (TG) synthesis", "conditions": "cited from earlier work"}, "HCV [3]": {"test_system": "HCV", "assay": "HCV replication", "format": "cell-based, hepatitis C virus"}, "HCV [4]": {"test_system": "HCV", "assay": "HCV replication in cell cultures, ACC inhibitor combined with HCV protease inhibitor (Example 1)", "format": "cell-based", "procedure": "HCV encoded proteolytic activity is required for infection and replication. The present example concerns the combined use of an ACC inhibitors (e.g., TOFA) and an HCV protease inihibitor (e.g., boceprevir) to antagonize viral replication. In each assay, various concentrations of TOFA are combined with various concentrations of boceprevir and cell cultures exposed to HCV are assayed for virus replication. In one series of tested combinations, a physiological concentration of boceprivir is held constant as the dose of TOFA is increased. Control cultures are treated with no drug, boceprivir alone or the various concentrations of TOFA alone. Samples are taken at 24, 48, 72 and 96 hours after initiation of drug treatment. The antiviral effect of boceprivir plus each concentration of TOFA is then compared to the activity of boceprivir alone or the various concentrations of TOFA alone. The relative toxicity of the different combinations is also assayed."}, "[5]": {"conditions": "cited from earlier work"}, "[6]": {"test_system": "herpes simplex virus-1 (HSV-1)", "assay": "HSV-1 replication", "format": "cell-based", "conditions": "nanomolar concentrations"}},
  "note": "Read-outs that look alike come from different tables or passages of the source.",
  "data": [
    {"smiles": "CCCCS(=O)(=O)N1C[C@H]2CC[C@@H]1[C@H](C(=O)Nc1ccc(OC)cc1)C2", "values": [
      {"measurement": "IC50", "setting": "hELOVL6", "result": 1710, "unit": "nM"}
    ]},
    {"smiles": "CC(C)Oc1ccc(NC(=O)[C@@H]2C[C@@H]3CC[C@H]2N(S(=O)(=O)c2cn(C)cn2)C3)cc1", "values": [
      {"measurement": "IC50", "setting": "hELOVL3", "result": 1510, "unit": "nM"},
      {"measurement": "IC50", "setting": "hELOVL6", "result": 220, "unit": "nM"}
    ]},
    {"smiles": "CCCCS(=O)(=O)N1CCC[C@@H](C(=O)Nc2ccc(OC(C)C)cc2)C1", "values": [
      {"measurement": "IC50", "setting": "hELOVL6", "result": 930, "unit": "nM"}
    ]},
    {"smiles": "NOCC(=O)O", "note": "[AOAA, aminooxyacetic acid]", "values": [
      {"measurement": "host cell toxicity", "setting": "MDCK cells", "result": "no evidence of host cell toxicity"},
      {"measurement": "inhibition of HCMV replication", "setting": "HCMV", "result": "inhibited the replication"},
      {"measurement": "decrease of HCMV replication", "setting": "HCMV; 0.5 mM", "result": 100, "unit": "fold"},
      {"measurement": "inhibition of adenovirus replication", "setting": "adenovirus", "result": "inhibited the replication"},
      {"measurement": "decrease of adenovirus titer", "setting": "adenovirus; 0.5 mM", "result": 20, "unit": "fold"},
      {"measurement": "decrease of adenovirus titer", "setting": "adenovirus; 1 mM", "result": 500, "unit": "fold"},
      {"measurement": "decrease of influenza A replication", "setting": "influenza A", "result": "at least 1000 fold"},
      {"measurement": "inhibition of influenza A replication", "setting": "influenza A", "result": "inhibited the replication"}
    ]},
    {"smiles": "N=C(N)NCc1cccc([131I])c1", "note": "[MIBG, meta-iodobenzylguanidine]", "values": [
      {"measurement": "reduction of HCMV titer", "setting": "HCMV; 50 μM, infected MRCS fibroblasts", "result": "about 70%"}
    ]},
    {"smiles": "CCC(C)[C@@H]1C(=O)/C(=C(/O)[C@@H]2[C@@H]3[C@H](C)C[C@H](C)C[C@@H]3C=C[C@@H]2[C@]2(C)O[C@H]2C)C(=O)N1C", "note": "(stereo partly drawn) [PF-1052]", "values": [
      {"measurement": "inhibition of CE synthesis", "setting": "[1]", "result": "inhibits both CE and TG synthesis in a dose dependent manner"},
      {"measurement": "inhibition of HCMV replication", "setting": "HCMV; 10 μM", "result": "profoundly inhibits"},
      {"measurement": "inhibition of TG synthesis", "setting": "[2]", "result": "inhibits both CE and TG synthesis in a dose dependent manner"}
    ]},
    {"smiles": "CCCCCCCCCCCCCCOc1ccc(C(=O)O)o1", "note": "[TOFA, 5-(tetradecyloxy)-2-furoic acid]", "values": [
      {"measurement": "inhibition of HCV replication", "setting": "HCV [3]", "result": "inhibited the replication"},
      {"measurement": "inhibition of HCMV replication", "setting": "HCMV", "result": "inhibited the replication"},
      {"measurement": "magnitude of the therapeutic effect", "setting": "HCV [4]; given TOFA concentration, boceprivir also present", "result": "increased"},
      {"measurement": "concentration of TOFA required to produce a 10-fold reduction in HCV replication", "setting": "HCV [4]; in the presence of a pharmacologically acceptable concentration of boceprivir", "result": "markedly reduced"},
      {"measurement": "adverse effects", "setting": "[5]; rat, in vivo, 100 mg/kg/day", "result": "no adverse effects are observed"},
      {"measurement": "teratogenicity", "setting": "[5]; rat, in vivo, 150 mg/kg/day", "result": "not teratogenic"},
      {"measurement": "oral LD50", "setting": "[5]; rats, oral", "result": "greater than 5,000 mg/kg"}
    ]},
    {"smiles": "O=C(Nc1ccc(C(F)(F)F)cc1)N1C2CCC1CC(S(=O)(=O)c1ccccn1)C2", "note": "(stereo not drawn) [endo-1w]", "values": [
      {"measurement": "IC50", "setting": "hELOVL3", "result": 6940, "unit": "nM"},
      {"measurement": "IC50", "setting": "hELOVL6", "result": 79, "unit": "nM"}
    ]},
    {"smiles": "COC(=O)c1c2c(c3ccccc3c1O)OC(C)(C)C=C2", "note": "[rubimaillin]", "values": [
      {"measurement": "inhibition of CE synthesis", "setting": "[1]", "result": "selectively inhibits CE synthesis"}
    ]},
    {"smiles": "CCC/C=C/C/C=C/C=C/C=N/NN=O", "note": "[triacsin C]", "values": [
      {"measurement": "inhibition of HCV replication", "setting": "HCV [3]; nanomolar concentrations", "result": "inhibit the replication"},
      {"measurement": "inhibition of HCMV replication", "setting": "HCMV; nanomolar concentrations", "result": "inhibit the replication"},
      {"measurement": "inhibition of HSV-1 replication", "setting": "[6]", "result": "inhibit the replication"},
      {"measurement": "inhibition of influenza A replication", "setting": "influenza A; nanomolar concentrations", "result": "inhibit the replication"}
    ]}
  ]
}
